Drawing on PubChem BioAssay (NCI), this text covers GI50 and TGI for nine compounds.

Test systems include NCI-H226 lung; UO-31 renal; UACC-62 melanoma; SF-268 CNS; SF-539 CNS; ACHN renal; COLO 205 colon; MDA-MB-435; SK-MEL-2 melanoma; SNB-75 CNS.
What all share (experiment): NCI tumour cell line growth inhibition, 48 h

Where “and” joins values, the source holds several entries; their conditions need not be identical. Equal values may be shown once.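 96-well plates; 48 h exposure; 5 concentrations. Endpoints by linear interpolation between flanking doses. Not reached: highest tested concentration assigned. GI50 is the concentration that inhibits growth by half. TGI denotes the concentration required for complete inhibition of growth.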 Where only a bound is given, the exact number is not on record here.

For the compound `C=C(C)[C@@H]1CC[C@]2(COC3CCCCO3)CC[C@]3(C)[C@H](CC[C@@H]4[C@@]5(C)C=C(C=O)C(=O)C(C)(C)[C@@H]5CC[C@]43C)[C@@H]12` (stereo partly specified), the GI50 in the test on NCI-H226 lung is 1950 nM; in the test with UO-31 renal, 1.36 µM; in the test on UACC-62 melanoma it was 1.27 µM; in the test with SF-268 CNS, 1.34 µM; with SF-539 CNS, 1210 nM; in the test on ACHN renal, 1.26 µM. For the same compound, the GI50 with COLO 205 colon is 1.62 µM; in the test with MDA-MB-435 it was 1.05 µM; in the test on SK-MEL-2 melanoma, 1560 nM. Further, the TGI in the test on NCI-H226 lung is 4.43 µM; in the test on UO-31 renal, 2.74 µM; in the test with UACC-62 melanoma, 3.55 µM; in the test with SF-268 CNS, 3.05 µM; in the test on SF-539 CNS, 2.58 µM; with ACHN renal it was 2.52 µM. In addition, the TGI was determined as 3.48 µM in the test with COLO 205 colon, 2.32 µM in the test with MDA-MB-435 and 3.26 µM with SK-MEL-2 melanoma.
Consider `COc1ccc(-c2cc(-c3cc(OC)c(OC)c(OC)c3)c(C#N)c(N3CCOCC3)n2)cc1O`, for which the GI50 was more than 100000 nM in the test on NCI-H226 lung; 11.1 µM in the test with UO-31 renal; 60.2 µM in the test with UACC-62 melanoma; 6 µM in the test with SF-268 CNS; 2520 nM in the test on SF-539 CNS; 3.49 µM in the test on ACHN renal. Besides, the GI50 in the test with SNB-75 CNS is 2200 nM; in the test on COLO 205 colon, 21.5 µM; in the test with MDA-MB-435 it was 3.28 µM; with SK-MEL-2 melanoma, 13500 nM. The TGI in the test with NCI-H226 lung is more than 100 µM; in the test with UO-31 renal it was more than 100 µM; with UACC-62 melanoma, more than 100 µM; in the test with SF-268 CNS, more than 100 µM; in the test on SF-539 CNS it was 12.5 µM; in the test with ACHN renal, more than 100 µM. The TGI was more than 25.6 µM in the test with SNB-75 CNS, more than 100 µM with COLO 205 colon, more than 43.7 µM in the test with MDA-MB-435 and more than 100 µM in the test on SK-MEL-2 melanoma.
As for `O=C(O)c1ccc2c(c1)nc(Nc1cccc(Cl)c1)c1ccncc12`, the GI50 in the test with NCI-H226 lung was 1770 nM and 2770 nM; with UO-31 renal it was 3.79 µM and 2.86 µM; with UACC-62 melanoma, 1.82 µM; with SF-268 CNS, 3.52 µM and 3.85 µM; with SF-539 CNS it was 2050 nM and 1580 nM; in the test with ACHN renal, 3.04 µM and 3.51 µM. Moreover, the GI50 in the test on SNB-75 CNS was 1440 nM and 1670 nM; in the test on COLO 205 colon, 4.21 µM and 3.67 µM; in the test with MDA-MB-435, 2.67 µM and 3.01 µM; with SK-MEL-2 melanoma it was 2400 nM and 1860 nM. Also, the TGI with NCI-H226 lung is more than 20.3 µM; with UO-31 renal, 14 µM and > 10 µM; in the test with UACC-62 melanoma, 6.16 µM; with SF-268 CNS, more than 77.4 µM; with SF-539 CNS, 8.45 µM and 6.12 µM; in the test on ACHN renal, more than 100 µM. Further, the TGI was 6.33 µM and 7.53 µM with SNB-75 CNS; 15.1 µM and > 10 µM in the test with COLO 205 colon; more than 31.6 µM with MDA-MB-435; 7.11 µM and 5.59 µM in the test with SK-MEL-2 melanoma.
Turning to `CN(C[C@@H]1COCCO1)S(=O)(=O)Nc1ccc2ccc3ncc(-c4cnn(C)c4)cc3c(=O)c2c1`, the GI50 is 2620 nM in the test with NCI-H226 lung; 1.95 µM with UO-31 renal; 3.29 µM in the test on UACC-62 melanoma; 4.26 µM with SF-268 CNS; 1570 nM with SF-539 CNS; 2.82 µM in the test with ACHN renal. The GI50 was 1600 nM with SNB-75 CNS, 19.3 µM in the test on COLO 205 colon, 7.13 µM with MDA-MB-435 and 3120 nM in the test on SK-MEL-2 melanoma. Besides, the TGI is more than 100 µM with NCI-H226 lung; more than 100 µM with UO-31 renal; more than 100 µM in the test with UACC-62 melanoma; more than 100 µM in the test with SF-268 CNS; 7.91 µM in the test with SF-539 CNS; more than 100 µM in the test on ACHN renal. Moreover, the TGI is more than 27.4 µM in the test on SNB-75 CNS, more than 100 µM in the test on COLO 205 colon, more than 100 µM in the test on MDA-MB-435 and more than 29.4 µM with SK-MEL-2 melanoma.
In the case of `COc1ccc(-c2ccc(/C=N/n3c(C)nn(CN4CCN(C)CC4)c3=S)o2)c([N+](=O)[O-])c1`, the GI50 is more than 100 µM in the test on UO-31 renal; 55.4 µM in the test with UACC-62 melanoma; 28.2 µM in the test on SF-268 CNS; 54400 nM in the test with SF-539 CNS; 69.4 µM with ACHN renal; 52.5 µM with COLO 205 colon. For the same compound, the GI50 in the test on MDA-MB-435 was 14.2 µM. Also, the TGI in the test on UO-31 renal, in the test on UACC-62 melanoma, in the test on SF-268 CNS, in the test with SF-539 CNS, in the test with ACHN renal and with COLO 205 colon was more than 100 µM in each case. Moreover, the TGI in the test on MDA-MB-435 is 31 µM.
Consider `NC(=O)/C=C/NC(=O)/C=N\O`, for which the TGI with NCI-H226 lung, with UO-31 renal, with UACC-62 melanoma, with SF-268 CNS, with SF-539 CNS and with ACHN renal was more than 100 µM each time. Also, the TGI with SNB-75 CNS, with COLO 205 colon and with MDA-MB-435 was more than 100 µM each time.
On to `O=[N+]([O-])c1ccc2ncccc2c1Cl`, for which the GI50 with NCI-H226 lung was 6220 nM; in the test on UO-31 renal it was 5.02 µM; in the test with UACC-62 melanoma it was 5.84 µM; with SF-268 CNS it was 3.89 µM; in the test on SF-539 CNS, 2760 nM; in the test with ACHN renal, 4.69 µM. Besides, the GI50 with SNB-75 CNS was 4670 nM; in the test with MDA-MB-435, 2.18 µM; with SK-MEL-2 melanoma, 9210 nM. Further, the TGI is more than 100 µM in the test on NCI-H226 lung; more than 100 µM with UO-31 renal; 20.4 µM in the test with UACC-62 melanoma; 13.9 µM with SF-268 CNS; 34.2 µM in the test with SF-539 CNS; 22.3 µM in the test on ACHN renal. Further, the TGI was more than 100 µM with SNB-75 CNS, 9.07 µM with MDA-MB-435 and 30.5 µM with SK-MEL-2 melanoma.
`CCc1nc(Cl)nc(Cl)c1Cl`: the TGI was 14.9 µM in the test with NCI-H226 lung; 0.674 µM with UO-31 renal; 19 µM with UACC-62 melanoma; 3.37 µM with SF-268 CNS; 9.65 µM in the test with SF-539 CNS; 1.5 µM with ACHN renal. Also, the TGI with SNB-75 CNS was 18.3 µM; in the test on COLO 205 colon, 14.6 µM; in the test with MDA-MB-435, 6.53 µM.
Take `CC/C(C)=C1\OC(=O)C(C)C(O)C(Cc2cccnc2)NC(=O)C(NC(=O)c2ncccc2O)C(C)OC1=O` (stereo unspecified): the TGI with UACC-62 melanoma, in the test on SF-268 CNS, in the test on SF-539 CNS, with ACHN renal, in the test on SNB-75 CNS and in the test on COLO 205 colon was more than 100 µM in each case. Further, the TGI with MDA-MB-435 and in the test on SK-MEL-2 melanoma was more than 100 µM in each case.
